Assays:
Type in all cases: in vivo
Lolium perenne (LOLPE) [1] = test: Pre-emergence herbicidal glasshouse test, Lolium perenne; conditions: 312 h, rate 250 g/ha, evaluated after 13 days, scale 100 = total damage to plant, 0 = no damage
Experimental: (§1) Seeds of a variety of test species were sown in standard soil in pots. After cultivation for one day (pre-emergence) or after 8 days cultivation (post-emergence) under controlled conditions in a glasshouse (at 24/16° C., day/night; 14 hours light; 65% humidity), the plants were sprayed with an aqueous spray solution derived from the formulation of the technical active ingredient in acetone/water (50:50) solution containing 0.5% Tween 20 (polyoxyethelyene sorbitan monolaurate, CAS RN 9005-64-5). The test plants were then grown in a glasshouse under controlled conditions in a glasshouse (at 24/16° C., day/night; 14 hours light; 65% humidity) and watered twice daily. After 13 days for pre and post-emergence, the test was evaluated ([…] to plant; 0=no damage to plant).
(§2) Setaria faberi (SETFA), Lolium perenne (LOLPE), Alopecurus myosuroides (ALOMY), Echinochloa crus-galli (ECHCG) and Avena fatua (AVEFA).

[2] = system: Alopecurus myosuroides (ALOMY); test: Pre-emergence herbicidal glasshouse test, Alopecurus myosuroides; conditions: Alopecurus myosuroides, 312 h, rate 250 g/ha, evaluated after 13 days, scale 100 = total damage to plant, 0 = no damage
Experimental: as §1, §2

[3] = system: Echinochloa crus-galli (ECHCG); test: Pre-emergence herbicidal glasshouse test, Echinochloa crus-galli; conditions: Echinochloa crus-galli, 312 h, rate 250 g/ha, evaluated after 13 days, scale 100 = total damage to plant, 0 = no damage
Experimental: as §1, §2

Avena fatua (AVEFA) [4] = test: Pre-emergence herbicidal glasshouse test, Avena fatua; conditions: Avena fatua, 312 h, rate 250 g/ha, evaluated after 13 days, scale 100 = total damage to plant, 0 = no damage
Experimental: as §1, §2

Lolium perenne (LOLPE) [5] = test: Post-emergence herbicidal glasshouse test, Lolium perenne; conditions: 312 h, rate 250 g/ha, evaluated after 13 days, scale 100 = total damage to plant, 0 = no damage
Experimental: as §1, §2

[6] = system: Alopecurus myosuroides (ALOMY); test: Post-emergence herbicidal glasshouse test, Alopecurus myosuroides; conditions: Alopecurus myosuroides, 312 h, rate 250 g/ha, evaluated after 13 days, scale 100 = total damage to plant, 0 = no damage
Experimental: as §1, §2

[7] = system: Echinochloa crus-galli (ECHCG); test: Post-emergence herbicidal glasshouse test, Echinochloa crus-galli; conditions: Echinochloa crus-galli, 312 h, rate 250 g/ha, evaluated after 13 days, scale 100 = total damage to plant, 0 = no damage
Experimental: as §1, §2

Avena fatua (AVEFA) [8] = test: Post-emergence herbicidal glasshouse test, Avena fatua; conditions: Avena fatua, 312 h, rate 250 g/ha, evaluated after 13 days, scale 100 = total damage to plant, 0 = no damage
Experimental: as §1, §2

Structure (SMILES)	pest or weed control at 250 g/ha (Lolium perenne (LOLPE) [1]) [%]	pest or weed control at 250 g/ha [2] [%]	pest or weed control at 250 g/ha [3] [%]	pest or weed control at 250 g/ha (Avena fatua (AVEFA) [4]) [%]	pest or weed control at 250 g/ha (Lolium perenne (LOLPE) [5]) [%]	pest or weed control at 250 g/ha [6] [%]	pest or weed control at 250 g/ha [7] [%]	pest or weed control at 250 g/ha (Avena fatua (AVEFA) [8]) [%]
CCc1cc(-c2ccc(F)c(OC)c2)ccc1C1=C(O)C(C)(COC)OC(C)(C)C1=O (stereo not shown) [Compound A-112]	90	80	100	80	90	80	100	80
CCc1cc(-c2ccc(F)c(F)c2)ccc1C1=C(O)C(C)(COC)OC(C)(C)C1=O (stereo not shown) [Compound A-113]	100	100	100	90	100	100	100	90
CCc1cc(-c2cc(F)c(F)c(F)c2)ccc1C1=C(O)C(C)(COC)OC(C)(C)C1=O (stereo not shown) [Compound A-114]	100	90	100	90	100	90	100	90
CCc1cc(-c2c(F)cc(F)cc2F)ccc1C1=C(O)C(C)(COC)OC(C)(C)C1=O (stereo not shown) [Compound A-116]	70	90	100	60	70	90	100	60
CCc1cc(-c2ccc(F)c(F)c2F)ccc1C1=C(O)C(C)(COC)OC(C)(C)C1=O (stereo not shown) [Compound A-117]	60	70	90	40	80	90	100	80
CCc1cc(-c2ccc(F)c(OC)c2)ccc1C1=C(O)C(C)(CC)OC(C)(C)C1=O (stereo not shown) [Compound A-118]	90	20	40	0	80	60	90	80
CCc1cc(-c2ccc(F)c(F)c2)ccc1C1=C(O)C(C)(CC)OC(C)(C)C1=O (stereo not shown) [Compound A-119]	60	40	30	10	90	100	100	90
CCc1cc(-c2cc(F)c(F)c(F)c2)ccc1C1=C(O)C(C)(CC)OC(C)(C)C1=O (stereo not shown) [Compound A-120]	90	60	70	40	100	100	100	100
CCc1cc(-c2cc(F)c(F)cc2F)ccc1C1=C(O)C(C)(CC)OC(C)(C)C1=O (stereo not shown) [Compound A-122]	0	20	10	0	70	90	70	30
CCc1cc(-c2ccc(F)c(F)c2F)ccc1C1=C(O)C(C)(CC)OC(C)(C)C1=O (stereo not shown) [Compound A-123]	0	0	0	0	80	80	90	80
CCc1cc(-c2ccc(F)c(F)c2)ccc1C1=C(O)C2(CCCC2)OC(C)(C)C1=O [Compound A-125]	0	0	0	0	30	50	70	10

Reference: US8895761B2, “4-phenylpyrane-3,5-diones, 4-phenylthiopyrane-3,5-diones and 2-phenylcyclohexane-1,3,5-triones as herbicides” (Syngenta Limited, priority 2007, dated 2014)
